What was measured:
VM-CUB1-LV = assay: MTT viability assay (CC50); format: cell-based, human; details: VM-CUB1-LV (empty vector), 72 h
Experimental: HDAC4 cDNA from the pcDNA-HDAC4-FLAG plasmid kindly provided by Tso-Pang Yao (Addgene plasmid # 30485) was cloned into the lentiviral vector puc2CL12IPwo using standard techniques, thereby creating the vector puc2CL12IPwo-HDAC4-FLAG (Additional file 1: Figure S1). Integrity of the HDAC4 coding sequence was verified by sequencing. Lentivirus production and cell transduction were performed as previously described. In brief, to produce replication-deficient lentiviruses, HEK-293T cells were transfected with helper plasmid expression construct (pCD/NL-BH [35]), envelope vector (pczVSV-G [36]), and the vector plasmids puc2CL12IPwo or puc2CL12IPwo-HDAC4-FLAG. Viral particles were harvested 48 h after transfection and used to transduce VM-CUB1 and UM-UC-3 cells using 8 μg/ml polybrene (Sigma Aldrich, St. Louis, MO). Twenty-four hours after transduction, the supernatant containing viral particles was removed and the transduced cells were selected with 4 (VM-CUB1) or 1 (UM-UC-3) μg/ml puromycin (Invitrogen, Carlsbad, CA) for 7 days. Stable overexpression of HDAC4 was confirmed by Western blot analysis of cells from several passages.
For the determination of cellular mean cytotoxic concentration (CC50), UCCs, non-malignant control cells, and HDAC4-overexpressing clones were seeded in a 96-well format and treated once with a range of defined concentrations of the HDAC inhibitors. After 72 h, viability was quantified by NAD(P)H-dependent 3-(4,5-dimethylthiazol-2-yl)-2,5-diphenyltetrazolium bromide dye reduction assay (MTT, Sigma Aldrich, St. Louis, MO). CC50 values were estimated from three independent experiments by non-linear regression analysis (four-parameter logistic equation) using Prism 4.0 (Graph Pad) or Origin 8.0 (Origin Lab, Northhampton, GB). For time-dependent proliferation experiments, viability of untreated or inhibitor-treated cells was measured after 24, 48, and 72 h.

HDAC1 [1] = target: T1, HDAC1 (Homo sapiens, UniProt Q13547); parameters: purchased Reaction Biology Corp. (Malvern, PA); details: previously reported; given for HDAC1/2 together; cited from earlier work
T1 sequence (Q13547 whole entry): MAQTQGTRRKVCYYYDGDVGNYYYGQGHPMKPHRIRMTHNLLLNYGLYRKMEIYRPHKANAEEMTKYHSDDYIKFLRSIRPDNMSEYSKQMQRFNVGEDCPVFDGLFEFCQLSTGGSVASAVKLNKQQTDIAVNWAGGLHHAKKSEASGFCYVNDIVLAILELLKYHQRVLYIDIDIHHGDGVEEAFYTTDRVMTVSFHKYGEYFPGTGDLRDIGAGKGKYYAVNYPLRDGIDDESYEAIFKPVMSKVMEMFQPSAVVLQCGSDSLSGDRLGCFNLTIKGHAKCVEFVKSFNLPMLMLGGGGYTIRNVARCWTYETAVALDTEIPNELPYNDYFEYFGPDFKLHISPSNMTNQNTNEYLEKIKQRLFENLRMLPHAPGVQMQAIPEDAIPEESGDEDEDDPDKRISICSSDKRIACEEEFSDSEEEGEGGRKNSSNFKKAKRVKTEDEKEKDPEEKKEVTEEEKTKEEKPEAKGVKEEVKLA

HDAC1 [2] = target: T1, HDAC1; assay: In vitro fluorescence-based HDAC inhibition assay (Reaction Biology); details: read-out: IC50 HDAC1; experiment performed once

SMILES: Cc1cc(C)cc(C(=O)NOCCCCCC(=O)NO)c1 [19i]
- CC50 (VM-CUB1-LV): 950 nM
- in vitro IC50 HDAC1 (HDAC1 [1]): sub-micromolar
- IC50 (HDAC1 [2]): 315 nM

Source: PMC6069857, “Effects of novel HDAC inhibitors on urothelial carcinoma cells” (Clinical Epigenetics, 2018)
